According to patent US11638718B2, “Treatment of alphavirus-induced inflammation” (priority 2016, dated 2023):
Marks after values point to notes of the source that are not given here.

Assays:
Ross River virus (RRV) [1] = experiment: RRV-induced disease in mice: clinical score and weight; type: in vivo, C57BL/6 mice; details: RRV-infected mice, PPS 3 mg/kg i.p. daily vs vehicle
Ross River virus (RRV) [2] = experiment: RRV viral load: plaque assay on Vero cells and nsP3 qPCR; type: in vivo, C57BL/6 mice
[3] = test system: chikungunya virus (CHIKV); experiment: CHIKV-induced footpad swelling and joint histology in mice; type: in vivo, C57BL/6 mice
[4] = test system: chikungunya virus (CHIKV); experiment: CHIKV viral load: plaque assay on Vero cells and E2 qPCR; type: in vivo, C57BL/6 mice; details: CHIKV-infected, days 1, 3 and 7 p.i.
[5] = humans, periods greater than 12 months (ref 53); cited from earlier work
[6] = test system: chikungunya virus (CHIKV); experiment: Serum soluble factors by multiplex, CHIKV-infected mice
Ross River virus (RRV) [7] = experiment: Serum soluble factors by multiplex bead array, RRV-infected mice
Ross River virus (RRV) [8] = experiment: H&E histology of quadriceps muscle and joint inflammation, RRV-infected mice
[9] = test system: cartilage matrix genes in joint tissues of RRV-infected mice; experiment: Real-time PCR of cartilage matrix genes in joint tissues, acute RRV infection
Ross River virus (RRV) [10] = experiment: Detection of leukocyte infiltrates in quadriceps by flow cytometry, RRV-infected mice
Ross River virus (RRV) [11] = experiment: Long-term oral PPS treatment of RRV-infected mice: clinical signs, joint gene expression
Ross River virus (RRV) [12] = experiment: Masson's trichrome and Safranin O/Fast Green histology of muscle, cartilage and epiphyseal plate, RRV-infected mice; details: day 10 p.i.
alphavirus = details: earlier studies by the group (refs 30, 55-57); cited from earlier work
[13] = peak disease (day 10 p.i.), not at the early stages
[14] = RRV + PPS, long-term oral treatment, joint tissue
[15] = long-term oral PPS, RRV-infected

pentosan polysulfate [PPS]
decrease in clinical disease score (Ross River virus (RRV) [1]): 65% | disease-associated weight loss (Ross River virus (RRV) [1]): protection from disease-associated weight loss | viral titres in serum (Ross River virus (RRV) [2]; PPS-treated vs mock-treated, all days tested, plaque assay): comparable | RRV titres in quadriceps muscles (Ross River virus (RRV) [2]; PPS-treated vs mock-treated, plaque assay): comparable | RRV titres in ankle tissues (Ross River virus (RRV) [2]; day 3 p.i., plaque assay): slight reduction | RRV titres in ankle tissues (Ross River virus (RRV) [2]; day 7 p.i., plaque assay): comparable | RRV RNA in joint tissue (qPCR), difference to mock-treated (Ross River virus (RRV) [2]; day 10 p.i.): not statistically significant | RRV titres in ankle tissues (Ross River virus (RRV) [2]; day 10 p.i., plaque assay, vs mock-treated): elevated | joint (footpad) swelling ([3]; CHIKV-infected mice, PPS 3 mg/kg i.p. daily): decreased the level of joint swelling | inflammatory cells infiltrating into the joint (H&E) ([3]; CHIKV-infected, peak swelling 3 days p.i.): reduction in inflammatory cells infiltrating into the joint | kinetics of virus infection (plaque assay) [4]: did not affect the kinetics of virus infection | tolerability of long-term clinical use [5]: extremely well tolerated | serum IL-10 ([6]; early): early surge | serum CCL-2 ([6]; peak disease (day 3 p.i.)): reduced the levels | serum G-CSF ([6]; peak disease (day 3 p.i.)): reduced the levels | serum IL-6 ([6]; peak disease (day 3 p.i.)): reduced the levels | serum IL-9 ([6]; peak disease (day 3 p.i.)): reduced the levels | serum IL-10 (Ross River virus (RRV) [7]; day 1 p.i.): significantly elevated | serum chemo-attractants factors (Ross River virus (RRV) [7]; day 1 p.i.): increased levels | serum IL-10 (Ross River virus (RRV) [7]; day 3 p.i.): significantly elevated | serum CCL-2 (Ross River virus (RRV) [7]; peak disease (day 10 p.i.)): significantly reduced | serum IL-1α (Ross River virus (RRV) [7]; peak disease (day 10 p.i.)): significantly reduced | serum IL-2 (Ross River virus (RRV) [7]; peak disease (day 10 p.i.)): significantly reduced | serum IL-6 (Ross River virus (RRV) [7]; peak disease (day 10 p.i.)): significantly reduced | serum MIP-1α (Ross River virus (RRV) [7]; peak disease (day 10 p.i.)): significantly reduced | infiltrating cells in muscle and joint tissues (H&E) (Ross River virus (RRV) [8]; RRV-infected, PPS 3 mg/kg i.p. daily, day 7 and 10 p.i.): markedly reduced numbers of infiltrating cells | inflammation in quadriceps muscle or ankle joint (Ross River virus (RRV) [8]; mock-infected PPS-treated mice): No inflammation was observed | BMP-1 expression ([9]; RRV-infected, PPS 3 mg/kg i.p.): unaffected | TGF-β1 expression ([9]; RRV-infected, PPS 3 mg/kg i.p.): unaffected | aggrecan expression increase caused by RRV ([9]; RRV-infected, PPS 3 mg/kg i.p.): largely reduced | collagen I expression increase caused by RRV ([9]; RRV-infected, PPS 3 mg/kg i.p.): largely reduced | collagen II expression increase caused by RRV ([9]; RRV-infected, PPS 3 mg/kg i.p.): largely reduced | metalloproteinases expression ([9]; RRV-infected, PPS 3 mg/kg i.p.): unaffected | early expression of aggrecan ([9]; early time points p.i.): significantly reduced | early expression of collagen II ([9]; early time points p.i.): significantly reduced | ADAMTS-5 expression in joint tissue [9, 13]: significantly reduced | TIMP-3 expression in joint tissue [9, 13]: significantly reduced | NK cell population in quadriceps (Ross River virus (RRV) [10]; day 7 p.i.): reductions | T cell population in quadriceps (Ross River virus (RRV) [10]; day 7 p.i.): reductions | monocyte population in quadriceps (Ross River virus (RRV) [10]; day 7 p.i.): reductions | numbers of CD45+ infiltrating leukocytes in quadriceps (Ross River virus (RRV) [10]; day 7 p.i.): uniformly reduced | NK cell population in quadriceps (Ross River virus (RRV) [10]; day 10 p.i.): decrease | T cell population in quadriceps (Ross River virus (RRV) [10]; day 10 p.i.): decrease | percentage of NK cells in quadriceps (NK cell to total cell ratio) (Ross River virus (RRV) [10]; day 10 p.i., data not shown): reduction in the overall percentage of NK cells | Fold Change ADAMTS-4 (Ross River virus (RRV) [11]; [14]): 0.1689** | Fold Change ADAMTS-5 (Ross River virus (RRV) [11]; [14]): 0.8305 | Fold Change Aggrecan (Ross River virus (RRV) [11]; [14]): 0.6105*** | Fold Change BMP-1 (Ross River virus (RRV) [11]; [14]): 1.4697 | Fold Change Collagen I (Ross River virus (RRV) [11]; [14]): 0.4014 | Fold Change Collagen II (Ross River virus (RRV) [11]; [14]): 0.1719 | Fold Change MMP-3 (Ross River virus (RRV) [11]; [14]): 2.5028 | Fold Change MMP-9 (Ross River virus (RRV) [11]; [14]): 0.8604 | Fold Change TGF-β1 (Ross River virus (RRV) [11]; [14]): 0.4010 | Fold Change TIMP-3 (Ross River virus (RRV) [11]; [14]): 0.6328 | ADAMTS-4 expression (Ross River virus (RRV) [11]; [15]): reduced | expression of aggrecan (Ross River virus (RRV) [11]; [15]): back to base-line levels | joint damage (Ross River virus (RRV) [11]; [15]): less joint damage | adverse clinical signs (Ross River virus (RRV) [11]; oral PPS in drinking water 100 mg/L (25 mg/kg/day), 3-month duration): no adverse clinical signs | chondrocyte morphology (Ross River virus (RRV) [12]): maintaining chondrocyte morphology | epiphyseal plate thickness (Ross River virus (RRV) [12]): prevented RRV-induced thinning of the epiphyseal plate | loss of articular cartilage (Ross River virus (RRV) [12]): preventing the loss of articular cartilage | proteoglycan matrix of articular cartilage (Safranin O/Fast Green, knee joint) (Ross River virus (RRV) [12]): protected the proteoglycan matrix of the articular cartilage | skeletal muscle morphology (tibialis anterior, Masson's trichrome) (Ross River virus (RRV) [12]): protected the morphology of striations within the skeletal muscle

Enbrel
effect on alphavirus disease (alphavirus): suppress the antiviral response and enhance viral replication thereby worsen disease
